Literature values in article PMC4810081, “Venetoclax (ABT-199) Might Act as a Perpetrator in Pharmacokinetic Drug–Drug Interactions” (Pharmaceutics, 2016).

Molecular target: T1, BCRP (Homo sapiens, UniProt Q9UNQ0)
T1 construct: expressed in transfected cells; host or cells: MDCKII-BCRP (gift of A. H. Schinkel and P. Borst)
Design: method as in PMID 20222053
Conditions: control compound; read-out: IC50 BCRP inhibition, control compound; cited from earlier work

T1 sequence (Q9UNQ0 whole entry): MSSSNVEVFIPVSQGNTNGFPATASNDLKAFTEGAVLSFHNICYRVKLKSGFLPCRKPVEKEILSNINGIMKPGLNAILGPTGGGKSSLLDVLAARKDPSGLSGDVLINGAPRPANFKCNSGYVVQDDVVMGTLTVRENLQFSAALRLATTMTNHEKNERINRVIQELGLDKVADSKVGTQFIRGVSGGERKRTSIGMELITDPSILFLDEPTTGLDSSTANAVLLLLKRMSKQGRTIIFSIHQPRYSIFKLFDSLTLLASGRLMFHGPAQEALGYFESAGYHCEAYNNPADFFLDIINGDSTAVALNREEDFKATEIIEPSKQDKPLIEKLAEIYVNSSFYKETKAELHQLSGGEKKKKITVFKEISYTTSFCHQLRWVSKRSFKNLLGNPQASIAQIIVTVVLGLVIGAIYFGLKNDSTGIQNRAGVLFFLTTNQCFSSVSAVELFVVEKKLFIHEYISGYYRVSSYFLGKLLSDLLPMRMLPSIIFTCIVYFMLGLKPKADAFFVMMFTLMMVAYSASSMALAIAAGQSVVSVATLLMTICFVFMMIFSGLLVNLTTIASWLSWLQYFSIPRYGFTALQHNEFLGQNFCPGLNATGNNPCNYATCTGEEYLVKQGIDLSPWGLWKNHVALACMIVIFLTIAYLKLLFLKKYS

Structure (SMILES): COc1ccc2c3c([nH]c2c1)[C@H](C=C(C)C)N1C(=O)[C@@H]2CCCN2C(=O)[C@@H]1C3 [FTC, fumitremorgin C]
- IC50: 700 ± 300 nM
